Like-named read-outs stand apart in the source and are kept apart here.
System: Propionibacterium acnes ATCC 6919
Protocol: The sample is then recovered onto agar and incubated 5-7 days until clear colonies are visible. […] The anti-P. acnes activity of various test treatments were compared. Anti-P. acnes activity was measured using the in vitro method described above. The test treatments comprised either 0.1 or 0.25 weight percent of succinic acid in reinforced clostridial media with and without the administration of 440 nm blue light. […] Non-control test samples were adjusted to a pH of 4.5.

For `O=C(O)CCC(=O)O` [Succinic Acid, Succinic acid (butanedioic acid)], the “antimicrobial activity of the combination relative to the expected additive reduction” value (0.1% succinic acid + light: 6.7 log reduction vs additive 2.6 log reduction) was “about 12,000 times”, the “reduction of P. acnes bacterial count” value (0.1% succinic acid combined with light) was 6.7 logs and the “Log 10 reduction vs Control Solution” value (0.1% succinic acid in reinforced clostridial media, pH 4.5, no light) was 2.0 Log 10. The “reduction of P. acnes bacterial count” value (0.1% succinic acid, no light, compared to untreated control solution) was 2 logs, the “Log 10 reduction vs Control Solution” value (0.1% succinic acid, pH 4.5, + 440 nm blue light) was greater than 6.7 Log 10 and the “antimicrobial activity of the combination relative to the expected additive reduction” value (0.25% succinic acid + light: 6.7 log reduction vs additive 6.2 log reduction) was “about 3 times”. The “reduction of P. acnes bacterial count” value (0.25% succinic acid combined with light) was 6.7 logs, the “Log 10 reduction vs Control Solution” value (0.25% succinic acid in reinforced clostridial media, pH 4.5, no light) was 5.6 Log 10 and the “reduction of P. acnes bacterial count” value (0.25% succinic acid, no light, compared to untreated control solution) was 5.6 logs. The “Log 10 reduction vs Control Solution” value (0.25% succinic acid, pH 4.5, + 440 nm blue light) was greater than 6.7 Log 10.
